# Assay results taken from patent US7674795B2, “Fluorene derivatives, composition containing said derivatives and the use thereof” (Aventis Pharma SA, priority 2005, dated 2010).
# Counter-ions that a name gives are not always drawn.
# Biological target: Hsp82 (Saccharomyces cerevisiae, UniProt P02829)
# Test: PK/LDH enzyme coupling test of the ATPase activity of Hsp82 (NADH decrease at 340 nm)
# Format: biochemical
# Settings: 1 μM Hsp82, 250 μM ATP, 37° C., pyruvate kinase/lactate dehydrogenase coupling, read-out: Hsp82 ATPase IC50
# From the text: The formation of ADP due to the ATPase activity of Hsp82 was utilized for developing another method of evaluating the enzymatic activity of this enzyme by application of an enzyme coupling system employing pyruvate kinase (PK) and lactate dehydrogenase (LDH). In this spectrophotometric method of the kinetic type, the PK catalyses the formation of ATP and of pyruvate starting from phosphoenol-pyruvate (PEP) and the ADP produced by HSP82. The pyruvate that formed, an LDH substrate, is then converted to lactate in the presence of NADH. In this case, the decrease in the concentration of NADH, measured by the decrease in absorbance at wavelength of 340 nm, is proportional to the concentration of ADP produced by HSP82. […] This mixture is preincubated at 37° C. for 30 min before adding 3.77 units of LDH and 3.77 units of PK. The reaction is started by adding the product to be evaluated, in variable concentrations, and of Hsp82, at a concentration of 1 μM. The enzymatic activity of Hsp82 is then measured continuously in a microplate reader at 37° C., at wavelength of 340 nm. The initial reaction rate is found by measuring the slope of the tangent at the origin of the recorded curve. The enzymatic activity is expressed as μM of ADP formed per minute. The effect of the various products tested is expressed as percentage of inhibition of ATPase activity, using the following codes: • A: […]
# Chain of Hsp82 (P02829 whole entry): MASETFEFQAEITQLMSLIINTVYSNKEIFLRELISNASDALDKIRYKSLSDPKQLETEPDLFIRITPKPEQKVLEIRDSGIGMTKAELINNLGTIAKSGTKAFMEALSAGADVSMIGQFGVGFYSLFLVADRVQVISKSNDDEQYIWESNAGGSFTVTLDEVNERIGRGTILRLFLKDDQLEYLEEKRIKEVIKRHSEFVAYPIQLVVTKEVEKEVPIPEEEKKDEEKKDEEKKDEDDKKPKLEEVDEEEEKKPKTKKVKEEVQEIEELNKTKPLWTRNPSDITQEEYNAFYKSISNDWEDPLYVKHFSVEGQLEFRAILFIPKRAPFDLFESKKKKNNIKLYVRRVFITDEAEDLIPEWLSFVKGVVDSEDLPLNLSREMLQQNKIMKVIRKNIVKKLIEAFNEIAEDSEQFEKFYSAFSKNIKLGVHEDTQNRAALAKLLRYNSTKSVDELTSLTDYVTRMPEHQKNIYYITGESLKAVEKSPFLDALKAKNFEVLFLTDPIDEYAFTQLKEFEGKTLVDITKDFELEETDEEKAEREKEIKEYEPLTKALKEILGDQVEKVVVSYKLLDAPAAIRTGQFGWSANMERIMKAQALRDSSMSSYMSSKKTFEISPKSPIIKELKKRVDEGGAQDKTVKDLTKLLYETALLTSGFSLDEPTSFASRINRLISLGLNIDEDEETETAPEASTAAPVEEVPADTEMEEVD
smiles,measurement,value
"CC(=O)NC1c2ccccc2-c2c(-c3nc4ccncc4[nH]3)cccc21 (racemic) [Example 72, N-[4-(3H-imidazo[4,5-c]pyridin-2-yl)-9H-fluoren-9(R,S)-yl]-acetamide]",IC50,1 to 10 µM
"Nc1cc(C(=O)NC2c3ccccc3-c3c(-c4nc5ccncc5[nH]4)cccc32)ccn1 (racemic) [Example 73, 2-amino-N-[4-(3H-imidazo[4,5-c]pyridin-2-yl)-9H-fluoren-9(R,S)-yl]-isonicotinamide]",IC50,< 1 µM
"O=C(NCc1ccco1)NC1c2ccccc2-c2c(-c3nc4ccncc4[nH]3)cccc21 (racemic) [Example 74, 1-furan-2-ylmethyl-3-[4-(3H-imidazo[4,5-c]pyridin-2-yl)-9H-fluoren-9(R,S)-yl]-urea]",IC50,10 to 100 µM
"O=C(NCc1ccc(F)cc1)NC1c2ccccc2-c2c(-c3nc4ccncc4[nH]3)cccc21 (racemic) [Example 75, 1-(4-fluorobenzyl)-3-[4-(3H-imidazo[4,5-c]pyridin-2-yl)-9H-fluoren-9(R,S)-yl]-urea]",IC50,10 to 100 µM
"Cc1noc(C)c1NC(=O)NC1c2ccccc2-c2c(-c3nc4ccncc4[nH]3)cccc21 (racemic) [Example 76, 1-(3,5-dimethyl-isoxazol-4-yl)-3-[4-(3H-imidazo[4,5-c]pyridin-2-yl)-9H-fluoren-9(R,S)-yl]-urea]",IC50,10 to 100 µM
"CCOC(=O)CCNC(=O)NC1c2ccccc2-c2c(-c3nc4ccncc4[nH]3)cccc21 (racemic) [Example 77, ethyl ester of 3-{3-[4-(3H-imidazo[4,5-c]pyridin-2-yl)-9H-fluoren-9(R,S)-yl]-ureido}-propionic acid]",IC50,1 to 10 µM
"CCOC(=O)CNC(=O)NC1c2ccccc2-c2c(-c3nc4ccncc4[nH]3)cccc21 (racemic) [Example 78, ethyl ester of {3-[4-(3H-imidazo[4,5-c]pyridin-2-yl)-9H-fluoren-9(R,S)-yl]-ureido}-acetic acid]",IC50,10 to 100 µM
"NC(=O)CCNC(=O)NC1c2ccccc2-c2c(-c3nc4ccncc4[nH]3)cccc21 (racemic) [Example 79, trifluoroacetate of 3-{3-[4-(3H-imidazo[4,5-c]pyridin-2-yl)-9H-fluoren-9(R,S)-yl]-ureido}-propionamide]",IC50,10 to 100 µM
"O=C1CNC(=O)N1C1c2ccccc2-c2c(-c3nc4ccncc4[nH]3)cccc21 (racemic) [Example 80, 3-[4-(3H-imidazo[4,5-c]pyridin-2-yl)-9H-fluoren-9(R,S)-yl]-imidazolidine-2,4-dione]",IC50,10 to 100 µM
"O=C(NC1c2ccccc2-c2c(-c3nc4ccncc4[nH]3)cccc21)c1cc[n+]([O-])cc1 (racemic) [Example 81, N-[4-(3H-imidazo[4,5-c]pyridin-2-yl)-9H-fluoren-9(R,S)-yl]-1-oxyisonicotinamide]",IC50,1 to 10 µM
"CCc1cc(C(=O)NC2c3ccccc3-c3c(-c4nc5ccncc5[nH]4)cccc32)ccn1 (racemic) [Example 82, 2-ethyl-N-[4-(3H-imidazo[4,5-c]pyridin-2-yl)-9H-fluoren-9(R,S)-yl]-isonicotinamide]",IC50,< 1 µM
"O=C(NC1c2ccccc2-c2c(-c3nc4ccccc4[nH]3)cccc21)c1cccc2ncccc12 (racemic) [Example 83, [4-(1H-benzimidazol-2-yl)-9H-fluoren-9(R,S)-yl]amide of quinoline-5-carboxylic acid]",IC50,10 to 100 µM
"O=C(NC1c2ccccc2-c2c(-c3nc4ccc(F)cc4[nH]3)cccc21)c1cccc2ncccc12 (racemic) [Example 84, [4-(6-fluoro-1H-benzimidazol-2-yl)-9H-fluoren-9(R,S)-yl]amide of quinoline-5-carboxylic acid]",IC50,1 to 10 µM
"O=C(NC1c2ccccc2-c2c(-c3nc4ccncc4[nH]3)cccc21)c1ccnc(Cl)c1 (racemic) [Example 87, 2-chloro-N-[4-(3H-imidazo[4,5-c]pyridin-2-yl)-9H-fluoren-9(R,S)-yl]-isonicotinamide]",IC50,1 to 10 µM
"O=C(NC1c2ccccc2-c2c(-c3nc4ccncc4[nH]3)cccc21)c1ccnc2[nH]ccc12 (racemic) [Example 92, [4-(3H-imidazo[4,5-c]pyridin-2-yl)-9H-fluoren-9(R,S)-yl]amide of 1H-pyrrolo[2,3-b]pyridine-4-carboxylic acid]",IC50,< 1 µM
"O=C(NC1c2ccccc2-c2c(-c3nc4ccncc4[nH]3)cccc21)c1ccnc(CO)c1 (racemic) [Example 94, 2-hydroxymethyl-N-[4-(3H-imidazo[4,5-c]pyridin-2-yl)-9H-fluoren-9(R,S)-yl]-isonicotinamide]",IC50,1 to 10 µM
"O=C(NC1c2ccccc2-c2c(-c3nc4ccncc4[nH]3)cccc21)c1ccnc(F)c1 (racemic) [Example 95, 2-fluoro-N-[4-(3H-imidazo[4,5-c]pyridin-2-yl)-9H-fluoren-9(R,S)-yl]-isonicotinamide]",IC50,1 to 10 µM
"Cc1cnccc1C(=O)NC1c2ccccc2-c2c(-c3nc4ccncc4[nH]3)cccc21 (racemic) [Example 96, N-[4-(3H-imidazo[4,5-c]pyridin-2-yl)-9H-fluoren-9(R,S)-yl]-3-methyl-isonicotinamide]",IC50,1 to 10 µM
"O=C(NC1c2ccccc2-c2c(-c3nc4ccncc4[nH]3)cccc21)c1ccnc2ncccc12 (racemic) [Example 97, hydrochloride of [4-(3H-imidazo[4,5-c]pyridin-2-yl)-9H-fluoren(R,S)-9-yl]amide of 1,8-naphthyridine-4-carboxylic acid]",IC50,1 to 10 µM
"O=C(NC1c2ccccc2-c2c(-c3nc4ccncc4[nH]3)cccc21)c1ccncc1Br (racemic) [Example 98, 3-bromo-N-[4-(3H-imidazo[4,5-c]pyridin-2-yl)-9H-fluoren-9(R,S)-yl]-isonicotinamide]",IC50,1 to 10 µM
"C[C@@H](C(=O)N[C@@H]1c2ccccc2-c2c(-c3nc4ccncc4[nH]3)cccc21)c1cccnc1 (racemic) [Example 100, N-[4-(3H-imidazo[4,5-c]pyridin-2-yl)-9H-fluoren-9(R,S)-yl]-2(R,S)-(pyridin-3-yl)-propionamide]",IC50,10 to 100 µM
"O=C(NC1c2ccccc2-c2c(-c3nc4ccncc4[nH]3)cccc21)c1ccnc(Br)c1 (racemic) [Example 102, 2-bromo-N-[4-(3H-imidazo[4,5-c]pyridin-2-yl)-9H-fluoren-9(R,S)-yl]-isonicotinamide]",IC50,< 1 µM
"O=C(NC1c2ccccc2-c2c(-c3nc4ccncc4[nH]3)cccc21)c1ccncc1O (racemic) [Example 103, 3-hydroxy-N-[4-(3H-imidazo[4,5-c]pyridin-2-yl)-9H-fluoren-9(R,S)-yl]-isonicotinamide]",IC50,< 1 µM
"Nc1cnccc1C(=O)NC1c2ccccc2-c2c(-c3nc4ccncc4[nH]3)cccc21 (racemic) [Example 104, 3-amino-N-[4-(3H-imidazo[4,5-c]pyridin-2-yl)-9H-fluoren-9(R,S)-yl]-isonicotinamide]",IC50,< 1 µM
"N#Cc1cc(C(=O)NC2c3ccccc3-c3c(-c4nc5ccncc5[nH]4)cccc32)ccn1 (racemic) [Example 105, 2-cyano-N-[4-(3H-imidazo[4,5-c]pyridin-2-yl)-9H-fluoren-9(R,S)-yl]-isonicotinamide]",IC50,1 to 10 µM
"COc1ccc2nc(-c3cccc4c3-c3ccccc3C4NC(=O)c3ccncc3)[nH]c2c1 (racemic) [Example 106, N-[4-(6-methoxy-1H-benzimidazol-2-yl)-9H-fluoren-9(R,S)-yl]-isonicotinamide]",IC50,1 to 10 µM
"ON=C1c2ccccc2-c2c1cccc2-c1nc2ccc(O)cc2[nH]1 (racemic) [Example 107, 4-(6-hydroxy-1H-benzimidazol-2-yl)-fluoren-9-one oxime (Z,E)]",IC50,10 to 100 µM
"COC(=O)c1cc(C(=O)NC2c3ccccc3-c3c(-c4nc5ccncc5[nH]4)cccc32)ccn1 (racemic) [Example 108, methyl ester of 4-[4-(3H-imidazo[4,5-c]pyridin-2-yl)-9H-fluoren-9(R,S)-ylcarbamoyl]-pyridine-2-carboxylic acid]",IC50,< 1 µM
"O=C(NC1c2ccccc2-c2c(-c3nc4ccncc4[nH]3)cccc21)c1ccnc(C(=O)O)c1 (racemic) [Example 109, 4-[4-(3H-imidazo[4,5-c]pyridin-2-yl)-9H-fluoren-9(R,S)-ylcarbamoyl]-pyridine-2-carboxylic acid]",IC50,10 to 100 µM
"O=C(NC1c2ccccc2-c2c(-c3nc4cccnc4[nH]3)cccc21)c1ccncc1 (racemic) [Example 110, N-[4-(3H-imidazo[4,5-b]pyridin-2-yl)-9H-fluoren-9(R,S)-yl]-isonicotinamide]",IC50,10 to 100 µM
"COCCCNC(=O)c1cc(C(=O)NC2c3ccccc3-c3c(-c4nc5ccncc5[nH]4)cccc32)ccn1 (racemic) [Example 112, 4-{[4-(3H-imidazo[4,5-c]pyridin-2-yl)-9H-fluoren-9(R,S)-yl]amide}-2-[(3-methoxy-propyl)-amide] of pyridine-2,4-dicarboxylic acid]",IC50,1 to 10 µM
"O=C(NC1c2ccccc2-c2c(-c3nc4ccncc4[nH]3)cccc21)c1cc(-c2ccco2)nc2ccccc12 (racemic) [Example 113, [4-(3H-imidazo[4,5-c]pyridin-2-yl)-9H-fluoren-9(R,S)-yl]amide of 2-(furan-2-yl)-quinoline-4-carboxylic acid]",IC50,1 to 10 µM
